From PubChem BioAssay AID192 (DTP/NCI, 2004)
Where “and” joins values, the source holds several entries; their conditions need not be identical. Identical values can stand only once. Inconclusive results and toxic doses are left out. How the source made its calls: active means survival T/C of 150% or more; inactive means T/C below 125% in these data. Peptide text beside a SMILES is read from it. * marks the point of attachment. Cbz = O=C(OCc1ccccc1)*; CH2Cl = ClC*

Tested on: BDF1 mice, B16 melanoma ip, median survival T/C
Assay: NCI In Vivo Anticancer Drug Screen. Data for tumor model B16 Melanoma (intraperitoneal) in B6D2F1 (BDF1) mice
Details: endpoint: median survival time, higher = longer survival
Summary of the method: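 Read-out: survival or tumor size, given as treated/control ratio. Controls received vehicle only; animals bore transplantable tumors.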

[1] = dose: 100.0 mg/kg/injection, schedule: Q01DX009 (ip), vehicle: Klucel (hydroxypropylcellulose) (HPC)
[2] = dose: 200.0 mg/kg/injection, schedule: Q01DX009 (ip), vehicle: Klucel (hydroxypropylcellulose) (HPC)
[3] = dose: 400.0 mg/kg/injection, schedule: Q01DX009 (ip), vehicle: Klucel (hydroxypropylcellulose) (HPC)
[4] = dose: 50.0 mg/kg/injection, schedule: Q01DX009 (ip), vehicle: saline with Tween-80
[5] = dose: 100.0 mg/kg/injection, schedule: Q01DX009 (ip), vehicle: saline with Tween-80
[6] = dose: 200.0 mg/kg/injection, schedule: Q01DX009 (ip), vehicle: saline with Tween-80
[7] = dose: 100.0 mg/kg/injection, schedule: Q01DX009 (ip), vehicle: saline
[8] = dose: 25.0 mg/kg/injection, schedule: Q01DX009 (ip), vehicle: saline
[9] = dose: 50.0 mg/kg/injection, schedule: Q01DX009 (ip), vehicle: saline
[10] = dose: 25.0 mg/kg/injection, schedule: Q01DX009 (ip), vehicle: Klucel (hydroxypropylcellulose) (HPC)
[11] = dose: 50.0 mg/kg/injection, schedule: Q01DX009 (ip), vehicle: Klucel (hydroxypropylcellulose) (HPC)
[12] = dose: 50.0 mg/kg/injection, schedule: Q04DX003 (ip), vehicle: saline
[13] = dose: 100.0 mg/kg/injection, schedule: Q04DX003 (ip), vehicle: saline

Measured: T/C

C(/C=C/c1ccccc1)=Nc1ccc2c(c1)Cc1ccccc1-2
inactive: [1] 96 % of control | [2] 90 % of control | [3] 87 % of control

CC(C)(C)OC(=O)NC(Cc1ccc(OCc2c(Cl)cccc2Cl)cc1)C(=O)O (stereo unspecified)
inactive: dose: 25.0 mg/kg/injection, schedule: Q01DX009 (ip), vehicle: saline with Tween-80 101 % of control | [4] 104 % of control | [5] 86 % of control

CC[C@H](CC[C@@H](C)[C@H]1CC[C@H]2[C@@H]3CC=C4C[C@@H](O)CC[C@]4(C)[C@H]3CC[C@]12C)C(C)C
inactive: [1] 91 % of control | [2] 109 % of control | [3] 94 % of control

O=S(=O)(O)CNc1cc(Cl)cc(Cl)c1
inactive: [1] 108 % of control | [2] 94 % of control

COc1cccc2c1C(=O)c1c(O)c3c(c(O)c1C2=O)C[C@@](O)(C(C)=O)C[C@@H]3OC1CC(N2CCOCC2C#N)C(O)C(C)O1 (stereo partly specified)
inactive: dose: 9.38 micrograms/kg/injection, schedule: Q01DX001 (ip), vehicle: distilled water + Tween-80 117 % of control | dose: 18.75 micrograms/kg/injection, schedule: Q01DX001 (ip), vehicle: water 107 % of control | dose: 75.0 micrograms/kg/injection, schedule: Q01DX001 (ip), vehicle: water 112 % of control

CCOc1ccc(NC(=O)Nc2cccc3ccccc23)cc1
inactive: dose: 1.56 mg/kg/injection, schedule: Q01DX009 (ip), vehicle: Klucel (hydroxypropylcellulose) (HPC) 91 % of control | dose: 3.13 mg/kg/injection, schedule: Q01DX009 (ip), vehicle: Klucel (hydroxypropylcellulose) (HPC) 91 % of control | dose: 6.25 mg/kg/injection, schedule: Q01DX009 (ip), vehicle: Klucel (hydroxypropylcellulose) (HPC) 86 % of control and 91 % of control

COC(=O)[c-]1[c-][c-][c-][c-]1.COC(=O)[c-]1[c-][c-][c-][c-]1.[Fe]
inactive: dose: 18.0 mg/kg/injection, schedule: Q01DX009 (ip), vehicle: Klucel (hydroxypropylcellulose) (HPC) 95 % of control and 103 % of control | dose: 28.75 mg/kg/injection, schedule: Q01DX009 (ip), vehicle: Klucel (hydroxypropylcellulose) (HPC) 104 % of control and 106 % of control | dose: 33.75 mg/kg/injection, schedule: Q04DX003 (ip), vehicle: Klucel (hydroxypropylcellulose) (HPC) 114 % of control | dose: 45.0 mg/kg/injection, schedule: Q01DX009 (ip), vehicle: Klucel (hydroxypropylcellulose) (HPC) 103 % of control and 118 % of control | dose: 67.5 mg/kg/injection, schedule: Q04DX003 (ip), vehicle: Klucel (hydroxypropylcellulose) (HPC) 92 % of control

Cc1cc2ncn(C(=O)Nc3ccccc3)c2cc1C
inactive: [5] 100 % of control | [6] 95 % of control | dose: 400.0 mg/kg/injection, schedule: Q01DX009 (ip), vehicle: saline with Tween-80 88 % of control

CCC1(CC)OC2=C(CC(C#N)(C#N)C(C#N)(C#N)C2)O1
inactive: dose: 2.5 mg/kg/injection, schedule: Q04DX003 (ip), vehicle: Klucel (hydroxypropylcellulose) (HPC) 96 % of control | dose: 3.12 mg/kg/injection, schedule: Q04DX003 (ip), vehicle: Klucel (hydroxypropylcellulose) (HPC) 100 % of control | dose: 4.0 mg/kg/injection, schedule: Q04DX003 (ip), vehicle: Klucel (hydroxypropylcellulose) (HPC) 98 % of control | dose: 9.5 mg/kg/injection, schedule: Q04DX003 (ip), vehicle: Klucel (hydroxypropylcellulose) (HPC) 96 % of control | dose: 12.5 mg/kg/injection, schedule: Q04DX003 (ip), vehicle: Klucel (hydroxypropylcellulose) (HPC) 88 % of control

CC1CCC(O)C1O (stereo unspecified)
inactive: [7] 120 % of control | dose: 200.0 mg/kg/injection, schedule: Q01DX009 (ip), vehicle: saline 120 % of control | dose: 400.0 mg/kg/injection, schedule: Q01DX009 (ip), vehicle: saline 122 % of control

CCN(CC)Cc1c(C)cc2oc(=O)c3c(c2c1O)CCCC3
inactive: dose: 16.0 mg/kg/injection, schedule: Q01DX009 (ip), vehicle: Klucel (hydroxypropylcellulose) (HPC) 98 % of control | dose: 32.0 mg/kg/injection, schedule: Q01DX009 (ip), vehicle: Klucel (hydroxypropylcellulose) (HPC) 100 % of control | dose: 64.0 mg/kg/injection, schedule: Q01DX009 (ip), vehicle: Klucel (hydroxypropylcellulose) (HPC) 88 % of control

Nc1ncnc2c1c1c(N)[nH]nc1n2C1OC(CO)C(O)C1O (stereo unspecified)
inactive: [8] 110 % of control | [9] 106 % of control | [7] 95 % of control

COc1cc2c(cc1OC)N(S(=O)(=O)c1ccc(C)cc1)CCCC2=O
inactive: dose: 100.0 mg/kg/injection, schedule: Q04DX003 (ip), vehicle: Klucel (hydroxypropylcellulose) (HPC) 87 % of control | dose: 200.0 mg/kg/injection, schedule: Q04DX003 (ip), vehicle: Klucel (hydroxypropylcellulose) (HPC) 100 % of control | dose: 400.0 mg/kg/injection, schedule: Q04DX003 (ip), vehicle: Klucel (hydroxypropylcellulose) (HPC) 92 % of control

C1CC[N-]CC1.CC(=N\O)/C(C)=N/O.CC(=N\O)/C(C)=N/O.C[CH-]CC.[Co+2]
inactive: [10] 102 % of control | [11] 108 % of control

CCO/C=C1\SC(=S)N(c2ccco2)C1=O
inactive: [8] 111 % of control | dose: 25.0 mg/kg/injection, schedule: Q04DX003 (ip), vehicle: saline 116 % of control | [9] 98 % of control | [12] 105 % of control | [7] 117 % of control | [13] 116 % of control | dose: 200.0 mg/kg/injection, schedule: Q04DX003 (ip), vehicle: saline 102 % of control

Clc1ccc(C(c2ccccc2Cl)C(Cl)Cl)cc1 (stereo unspecified)
inactive: [4] 95 % of control | [5] 95 % of control | [6] 90 % of control

COc1cc(O)c2c(O)c3c(c4c2c1[C@]1(C4)C(C)=CCCC1(C)C)[C@H](O)[C@@]1(O)CC(=O)C(C(N)=O)=C(O)[C@@]1(O)C3=O
inactive: dose: 6.0 mg/kg/injection, schedule: Q01DX009 (ip), vehicle: saline with Tween-80 97 % of control | dose: 6.25 mg/kg/injection, schedule: Q04DX003 (ip), vehicle: saline with Tween-80 112 % of control | dose: 12.5 mg/kg/injection, schedule: Q04DX003 (ip), vehicle: saline with Tween-80 116 % of control | dose: 25.0 mg/kg/injection, schedule: Q04DX003 (ip), vehicle: saline with Tween-80 121 % of control

CC(=O)OC(C)c1ccccc1 (stereo unspecified)
inactive: [1] 93 % of control | [2] 96 % of control

CCOC(=O)C(Cl)CCl (stereo unspecified)
inactive: [11] 100 % of control | [1] 100 % of control

CC(C)CC(NC(=O)OCc1ccccc1)C(=O)NC(Cc1ccccc1)C(=O)CCl (stereo not drawn) (Cbz-Leu-Phe-CH2Cl; configuration not given here)
inactive: dose: 1.56 mg/kg/injection, schedule: Q01DX009 (ip), vehicle: saline 99 % of control | dose: 3.12 mg/kg/injection, schedule: Q01DX009 (ip), vehicle: saline 99 % of control | dose: 6.25 mg/kg/injection, schedule: Q01DX009 (ip), vehicle: saline 97 % of control

COc1cc2ccc(CCNCc3ccccc3)cc2cc1OC
inactive: [12] 92 % of control | [13] 94 % of control

Nc1nc(N)c(-c2ccc(Cl)c(Cl)c2)c(CP(Cl)(Cl)(Cl)Br)n1
inactive: dose: 6.3 mg/kg/injection, schedule: Q01DX009 (ip), vehicle: Klucel (hydroxypropylcellulose) (HPC) 112 % of control | dose: 12.5 mg/kg/injection, schedule: Q01DX009 (ip), vehicle: Klucel (hydroxypropylcellulose) (HPC) 111 % of control | [10] 115 % of control | [11] 123 % of control
